Experimental data reported in patent publication US11229680B2, “Autophagy inhibitors” (The Hong Kong University of Science and Technology, priority 2017, dated 2022).
“Also recorded” adds a separate entry of the source.

Key:
[1] = tested on: GABARAP; experiment: ITC binding to GABARAP; design: species or system human; conditions: for selectivity towards GABARAP proteins (in words): GABARAP versus LC3, FIGS. 2E and 4C
[2] = target: LC3s (LC3A, LC3B, LC3C) (Homo sapiens); experiment: ITC binding to LC3s
[3] = tested on: LC3-positive puncta in COS7 cells; experiment: LC3-positive puncta in starved COS7 cells; assay type: cell-based; conditions: COS7 cells over-expressing mCherry-tagged peptide, nutrients deprivation
From the text: (§1) We used the well-established cultured COS7 cells for assessing autophagy inhibitions by the AnkB/G LIR peptides over-expressed in the cells. We quantified the numbers of endogenous LC3- or GABARAP-positive puncta, which represent LC3 or GABARAP-containing autophagic structures, as readouts to quantify autophagy inhibitions (Klionsky et al., 2016; Mizushima et al., 2010). After nutrients deprivation, obvious accumulations of LC3- or GABARAP-positive puncta could be observed in cells over-expressing mCherry only, indicating induction of autophagy by starvation (FIG. 6C6&E6). […] In contrast, expression of the mCherry-AnkB WR peptide had no impact on the LC3- or GABARAP-puncta numbers (i.e. with the same puncta numbers as expressing the mCherry vector control; FIG. 6C-F).

[4] = tested on: GABARAP-positive puncta in COS7 cells; experiment: GABARAP-positive puncta in starved COS7 cells; assay type: cell-based; conditions: COS7 cells over-expressing mCherry-tagged peptide, nutrients deprivation
From the text: as §1

[5] = tested on: p62-positive puncta in COS7 cells; experiment: p62-positive puncta in starved COS7 cells; assay type: cell-based; conditions: COS7 cells expressing mCherry-tagged peptide, starvation
From the text: We further quantified the level of p62, one of the best studied selective autophagy substrates, to monitor the autophagic flux in COS7 cells expressing various AnkB/G LIR peptides under the starvation condition (Klionsky et al., 2016; Mizushima et al., 2010). Upon autophagy induction, p62 forms aggregates via its LIR motif-mediated interactions to Atg8s and subsequent incorporation into autophagosomes (Bjorkoy et al., 2005; Pankiv et al., 2007). Only a relatively low and steady level of p62 aggregates is formed if autophagy flux is normal (i.e. p62-positive autophagosomes are steadily cleared by fusing with lysosomes; (Bjorkoy et al., 2005)), and this is indeed the case when cells were expressed with the mCherry vector control (FIG. 7F). […] This is consistent with a previous siRNA-based study showing that knockdown of LC3 but not GABARAP causes p62 accumulation in COS7 cells (Maruyama et al., 2014). Taken together, the above cell-based assays reinforce our earlier conclusion derived from biochemical and structural studies, that the AnkB WT peptide can function as potent autophagy inhibitor by targeting all members of the Atg8 family and the AnkG WT or ER peptides can selectively target the GABARAPs and spare the LC3s.

[6] = tested on: SQST-1::GFP; experiment: SQST-1::GFP aggregate accumulation in C. elegans expressing the peptides; assay type: in vivo
From the text: We next determined whether the AnkB WT peptide blocks autophagy in C. elegans. Autophagy is required for degradation of a variety of protein substrates, including the C. elegans p62 homolog SQST-1 during development (Tian et al., 2010). In the wild type animals, SQST-1::GFP is weakly expressed and diffusely localized in the cytoplasm, while numerous SQST-1 aggregates accumulate in autophagy mutants (Tian et al., 2010). The AnkB WT peptide fused with the Cherry reporter (Cherry::AnkB WT) or Cherry::AnkB WR was expressed under the control of the nfya-1 promoter, which is expressed ubiquitously from the embryonic to adult stages. The expression plasmids were injected into animals carrying integrated SQST-1::GFP reporter (bpIs151) and transgenic lines were obtained and analyzed.
Similarly, we also tested the blocking effect of AnkG peptides in C. elegans. […] This observation is somewhat different from that in mammalian heterologous cells. This may be explained by the different roles of the two families in different organisms. In mammal, p62 degradation is dependent on LC3 but not GABARAP (Maruyama et al., 2014), so blocking GABARAP binding has minimal effect on p62 degradation. However, in C. elegans, LGG-1 acts upstream to LGG-2 (Manil-Segalen et al., 2014; Wu et al., 2015), so blocking either of them will lead to defect in SQST-1 degradation.
Although a large collection of autophagy mutants were isolated from genetic screens (Tian et al., 2010), assays to inhibit autophagy activity in a spatiotemporal manner are not available. We investigated whether the AnkB peptide can block autophagy in a tissue- and temporal-specific manner. The AnkB peptide was expressed under the control of tissue-specific promoters, including the promoter of myo-3 for body wall muscle cells, y37A1B.5 for hypodermal cells and vha-6 for intestinal cells. The expression constructs were injected into animals carrying the corresponding tissue-specific SQST-1::GFP expression integrated lines.
We also examined whether the AnkB peptide can impair autophagy in a temporal control manner. The expression of AnkB WT was driven by the promoter of col-19, which is expressed in hypodermal cells from the young adult stage onwards.

[7] = target: LGG-1 (Caenorhabditis elegans, UniProt Q09490); experiment: ITC binding to purified LGG-1; design: species or system C. elegans
From the text: (§2) C. elegans provides an ideal platform to study autophagy and especially to investigate roles of different members of Atg8 in autophagy, because worms contain both GABARAP and LC3 subfamily Atg8s and yet simple enough with one gene for each subfamily (worm lgg-1 and lgg-2 are […] of GABARAP and LC3, respectively). It has also been shown earlier on that lgg-1 and lgg-2 act non-redundantly in autophagy (Wu et al., 2015). Prior to performing autophagy assays in worms, we measured the bindings of various AnkB/G LIR peptides to purified LGG-1 and LGG-2 using the same method as we have described for FIGS. 1&3.

[8] = target: T1, LGG-2 (Caenorhabditis elegans, UniProt Q23536); experiment: ITC binding to purified LGG-2; design: species or system C. elegans
T1 sequence (Q23536 1-130): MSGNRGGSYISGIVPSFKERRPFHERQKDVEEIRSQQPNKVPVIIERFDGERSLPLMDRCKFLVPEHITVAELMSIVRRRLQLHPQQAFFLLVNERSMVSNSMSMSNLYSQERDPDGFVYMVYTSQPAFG
From the text: as §2

[9] = tested on: C. elegans; experiment: C. elegans hatching and development; assay type: in vivo; conditions: Pnfya-1::Cherry fusion
From the text: Autophagy plays critical roles in various physiological processes occurring during development or in adult C. elegans (Zhang et al., 2015). Fewer autophagy mutants develop into larvae. […] 60.8% embryos expressing the AnkB WT peptide hatched, compared to 96.9% of embryos expressing AnkB WR (FIG. 8G). Autophagy mutants also grow slowly. […] Thus, the AnkB WT peptide blocks autophagy during C. elegans development.

[10] = tested on: C. elegans; experiment: C. elegans life span; assay type: in vivo
From the text: Autophagy is known to regulate the adult worm aging process. […] The autophagy defect caused by AnkB was weaker than that in autophagy mutants.

[11] = mCherry::AnkG peptides, embryonic stage (FIG. 10B-D)

Sequence of LGG-1 (Q09490 1-116 limits assumed): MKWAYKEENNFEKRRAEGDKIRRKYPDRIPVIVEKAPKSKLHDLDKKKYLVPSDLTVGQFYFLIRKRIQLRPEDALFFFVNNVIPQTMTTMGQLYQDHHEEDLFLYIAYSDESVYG

## AnkG LIR C-helix alone: AnkG LIR C-helix alone (aa 1993-2010) (SSEEIREARQQAAASQSP; UniProt Q12955 1993-2010, looked up, fragment)
[1]; ITC
  binding to GABARAP (in words): no detectable binding

## AnkG W1989R: AnkG LIR with Trp1989 substituted by Arg; negative and specificity control (PEDDRTEFSSEEIREARQAAASHAPS; AnkG W1989R rat recombinant peptide, prepared in the lab)
[1]; ITC
  binding to GABARAP (in words): dramatic weakening
[2]
  binding to LC3 (in words): dramatic weakening
[3]
  LC3-positive puncta number: did not see any noticeable changes
[4]
  GABARAP-positive puncta number: did not see any noticeable changes
[5]
  p62-positive puncta versus mCherry vector control: neither of the AnkB/G WR peptides could induce p62-positive puncta increase
[6]; [11]
  SQST-1::GFP aggregates: no SQST-1::GFP aggregates

## E1599R modification of AnkB: AnkB LIR peptide with E1599R modification (VEEEWVIVSDERIEEARQKAPLEITEY; AnkB E1599R human recombinant peptide, prepared in the lab)
[1]
  selectivity towards GABARAP proteins (in words): increase in selectivity towards GABARAP proteins

## E1996R modification of AnkG: AnkG LIR peptide with E1996R modification (PEDDWTEFSSERIREARQAAASHAPS; AnkG E1996R rat recombinant peptide, prepared in the lab)
[1]
  selectivity towards GABARAP proteins (in words): increase in selectivity towards GABARAP proteins

## PEDDWTRFSSEEIREARQAAASHAPS (AnkG E1991R rat recombinant peptide, prepared in the lab) [modified from rat 480 kD AnkG residues 1985-2010]
[1]
  selectivity towards GABARAP proteins (in words): increase in selectivity towards GABARAP proteins
[1]; ITC
  binding to GABARAP (in words): slightly weaker affinity
[7]
  binding to LGG-1 (in words): retained strong binding
[8]
  weaker affinity towards LGG-2 than LGG-1: ~1,000 fold
[3]
  LC3-positive puncta number: essentially no impact
[4]
  GABARAP-positive puncta number: potently inhibited
[5]
  p62-positive puncta versus mCherry vector control: no statistically significant increase
[6]; Cherry fusion, hyp7 promoter, epidermis, embryonic to adult stages
  SQST-1::GFP aggregates: caused accumulation of SQST-1::GFP aggregates
[6]; Phyp7::mCherry::AnkG peptides, hypodermis, L4 larvae
  SQST-1::GFP aggregates: a large number of SQST-1::GFP aggregates accumulate
[6]; [11]
  SQST-1::GFP aggregates: accumulation of SQST-1::GFP aggregates

## VEEEWVIVSDEEIEEARQKAPLEITEY [AnkB LIR, recombinant peptide from natural human 440 kD AnkB residues 1588-1614]
[1]; ITC
  affinity to GABARAP higher than AnkG LIR: about 10 fold
[7]
  binding to LGG-1 (in words): binds very strongly
[8]; purified LGG-2
  binding to LGG-2 (in words): binds very strongly
[3]
  LC3-positive puncta number: reduced the LC3- and GABARAP-puncta to the background level
[4]
  GABARAP-positive puncta number: reduced the LC3- and GABARAP-puncta to the background level
[5]
  p62-positive puncta versus mCherry vector control: dramatically increased
[6]; Cherry fusion, FIG. 8, embryo
  SQST-1::GFP aggregates: a large number of SQST-1::GFP aggregates accumulated
[6]; Cherry fusion, FIG. 8, larvae
  SQST-1::GFP aggregates: a large number of SQST-1::GFP aggregates
[6]; Cherry fusion, nfya-1 promoter (ubiquitous), multiple tissues, embryonic to adult stages
  SQST-1::GFP aggregates: accumulated a large number of SQST-1::GFP aggregates
[6]; col-19 promoter (hypodermal cells from young adult stage onwards), adult
  SQST-1::GFP aggregates: adult-specific accumulation of SQST-1::GFP aggregates
[6]; col-19 promoter, embryonic to L4 larval stages (no peptide expression yet), listed as AnkB WT
  SQST-1::GFP aggregates: no aggregates were found; also recorded: no SQST-1::GFP aggregates
[6]; mCherry fusion, hypodermal cells, embryo (FIG. 9)
  SQST-1::GFP aggregates: a large number of SQST-1::GFP aggregates accumulate
[6]; mCherry fusion, hypodermis, L4 larvae (FIG. 9)
  SQST-1::GFP aggregates: a large number of SQST-1::GFP aggregates accumulate
[6]; myo-3 promoter, muscle cells, L4 larvae
  SQST-1::GFP aggregates: SQST-1::GFP aggregates accumulate
[6]; myo-3 promoter, muscle cells, L4 larvae (FIG. 10W-Y), listed as AnkB WT
  dependence of SQST-1::GFP aggregates on peptide expression level: correlate with the degree of autophagy inhibition; also recorded: increases with increasing expression
[6]; myo-3 promoter, muscle, embryo
  SQST-1::GFP aggregates: a large number of SQST-1::GFP aggregates accumulate
[6]; tissue-specific promoters myo-3, y37A1B.5, vha-6, embryonic to adult stages
  SQST-1::GFP aggregates: a large number of SQST-1::GFP aggregates accumulated
[6]; vha-6 promoter, intestine cells, embryo
  SQST-1::GFP aggregates: SQST-1::GFP aggregates accumulate
[6]; vha-6 promoter, intestine cells, larvae (FIG. 10S, 10T)
  SQST-1::GFP aggregates: SQST-1::GFP aggregates accumulate
[9]
  additional time for embryos to develop into L1 larvae compared to AnkB WR: approximately two more hours
  additional time to develop into young adults compared to AnkB WR: ~6 h
  embryos hatched (hatch rate): 60.8%
[10]; Pmyo-3::ch:: fusion (muscle)
  Median lifespan: 18.12 days
[10]; Pnfya-1::Cherry fusion
  life span compared to animals expressing Cherry::AnkB WR: dramatically shortened the life span
[10]; Pnfya-1::ch:: fusion (ubiquitous)
  Median lifespan: 16.32 days
[10]; Pvha-6::ch:: fusion (intestine)
  Median lifespan: 18.87 days
[10]; Py37a1b.5::ch:: fusion (hypodermal cells)
  Median lifespan: 16.64 days
[10]; expressed in hypodermal cells
  mean life span: slightly reduced the mean life span
[10]; expressed in muscle cells and intestinal cells
  life span compared to animals expressing Cherry::AnkB WR: did not significantly reduce the life span
